Experimental data: paper PMC6662714, “High-throughput identification of peptide agonists against GPCRs by co-culture of mammalian reporter cells and peptide-secreting yeast cells using droplet microfluidics” (Scientific Reports, 2019)

Experiments:
human GLP1R (hGLP1R) [1] = test: Functional cell-based assay, adherent hGLP1R/LacZ-293 reporter cells (LacZ fluorescence); conditions: DMEM, 50 µM CMFDG, 37 °C, 12 h
Experimental: (§1) To construct a reporter cell line that constitutively produces human GLP1R (hGLP1R) and inducibily secretes NanoLuc in response to the activation of hGLP1R, pIRES-hGLP1R, and pCRE-NLuc[13], were co-transfected in HEK293 cells (European Collection of Cell Culture, Salisbury, UK) using Xfect™ (Clontech Laboratries, Inc., Mountain View, CA, USA). The transfected cells were cultured in Dulbecco’s Modified Eagle Medium (DMEM) (Nacalai Tesque, Kyoto, Japan) containing 10% FBS (GE Healthcare, Little Chalfont, UK), 1% penicillin-streptomycin (Sigma-Aldrich, St. Louis, MO, USA), 400 µg/mL G418 (Nacalai Tesque), and 0.1 µg/mL puromycin (Wako Pure Chemical Industries, Osaka, Japan). The reporter cells were selected to establish a stable cell line harboring GLP1R and secretory NanoLuc genes (hGLP1R/NLuc-293)[13]. […]
To perform a functional assay using the adherent hGLP1R/LacZ-293 cell line, hGLP1R/LacZ-293 cells were seeded at 5 × 10^3 cells/100 µL in a 96-well plate (Thermo Fisher Scientific) and cultured at 37 °C for 24 h. […] After 12 h incubation at 37 °C, fluorescence intensity was measured using Fluoroskan Ascent™ Microplate Fluorometer.

human GLP1R (hGLP1R) [2] = test: Functional cell-based assay in droplets (droplet microfluidics), hGLP1R/LacZ-293; conditions: 6 h, Fig. 4b; for fluorescence intensity of droplets: DMEM, 50 µM CMFDG, 30 °C, at least 70 droplets
Description: A single-inlet microfluidic device was designed according to previous reports[39],[40] (Fig. S1). In brief, polydimethylsiloxane (PDMS, Sylgard 184, Dow Corning Corp, Midland, MI, USA) and its cross-linker were mixed at a ratio of 10:1 (w/w), degassed, poured onto a master mold, and cured. The cured PDMS was peeled from the mold and punched with 0.75 mm biopsy punch (World Precision Instruments, Sarasota, FL, USA). The PDMS slab was bonded to a glass slide by plasma treatment (Plasma Cleaner PDG-32G; Harrick Scientific, Pleasantville, NY, USA), and baked for at least 30 min at 70 °C. The microfluidics device, an air compressor, Mitos P-Pump Basic (Dolomite, Charleston, MA, USA) were connected, and the pressure was set to be about 150 mbar for aqueous phase and about 300 mbar for oil phase. To generate droplets, cell suspension and a carrier phase (FC40 containing 5% (v/v) of the surfactant Pico-Surf1, Dolomite), were pumped into the cross-junction.
As a proof-of-principle experiment, hGLP1R/LacZ-293 was suspended at 5.0 × 10^6 cells/mL in the following media: DMEM, DMEM containing authentic Ex4, DMEM containing WT S. cerevisiae (Yeast-WT), or DMEM containing Ex4-secreting S. cerevisiae (Yeast-Ex4). The concentration of yeast cells was set to be 9.1 × 10^6 cells/mL. CMFDG was added in the media to realize a concentration of 50 µM. After encapsulation, the droplets were incubated at 30 °C for 6 h. Fluorescence intensity of each droplet was calculated by image analysis under a confocal laser scanning fluorescence microscope.

human GLP1R (hGLP1R) [3] = test: Functional cell-based assay, floating hGLP1R/LacZ-293 cells; conditions: 30 nM authentic Ex4, floating cells 5 × 10^3 cells/50 µL, RPMI-1640, 50 µM CMFDG, 37 °C, 12 h; n = 3; Fig. 3a
Experimental: as §1, with “(hGLP1R/NLuc-293)[13]. To construct a reporter cell line that secretes LacZ in response to the activation of hGLP1R, pIRES-hGLP1R[13], and pCRE-LacZ were co-transfected in HEK293 cells, and a reporter cell line, hGLP1R/LacZ-293, was selected using a medium containing G418 and puromycin.” for “(hGLP1R/NLuc-293)[13].”
An assay using floating hGLP1R/LacZ-293 was carried out using the following procedure. […] Immediately after the modification, the solution was placed in a 96-well plate and incubated at 37 °C for 12 h, and fluorescence intensity was measured.

human GLP1R (hGLP1R) [4] = test: Co-culture of floating hGLP1R/LacZ-293 and ligand-secreting yeast cells; type: cell-based; conditions: co-culture with yeast cells secreting Ex4 (4.5 × 10^5 cells/50 µL) vs WT yeast, RPMI-1640, 50 µM CMFDG, 37 °C, 12 h, n = 3, Fig. 3b
Description: Saccharomyces cerevisiae BY4742 [MATα, his3Δ1, leu2Δ0, lys2Δ0, ura3Δ0] (GE Healthcare) was used for the secretion of a hGLP1R agonist, Exendin-4 (Ex4, produced by the Gila monster[31]) and randomized Ex4 variants. To construct an Ex4-secretory yeast, pULS-Ex4[13] was transformed into the BY4742 strain using the Frozen-EZ Yeast Transformation-II Kit (Zymo Research, Orange, CA, USA). Yeast cells secreting randomized Ex4 variants were constructed using gap repair cloning[34] as follows. pULS plasmid[13] was digested with EcoRI and KpnI to obtain a linear vector fragment. Insert DNA fragments encoding Ex4 genes whose two N-terminal amino acids were randomized were PCR-amplified from pULS-Ex4 using the following primers: 5′-[…]-3′ and 5′-[…]-3′. The BY4742 strains were transformed using the linear vector fragments (500 ng) and the randomized insert fragments (250 ng) for gap repair cloning. […]
Co-culture of floating hGLP1R/LacZ-293 and ligand-secreting yeast cells was carried out using the following procedure. […] Immediately after the modification, the solution was incubated in a 96-well plate at 37 °C for 12 h, and fluorescence intensity was measured.

GLP1R = conditions: cited from earlier work
Description: To investigate whether the activity of the peptides was not influenced by the post-translational modifications by yeast or differences in secretion efficiencies, WT Ex4 and Ex4 variants fused with an N-terminal FLAG sequence were produced using Escherichia coli. The peptides were purified using anti-FLAG resin, and reacted with enterokinase, which cleaves the peptides after the FLAG sequence to expose free N-terminal of Ex4 peptides. We added the purified WT Ex4 produced by E. coli with or without enterokinase reactions to the hGLP1R/NLuc-293 cells, and observed a significant increase in lumin ...

human GLP1R (hGLP1R) [5] = test: Functional cell-based assay, adherent hGLP1R/NLuc-293 reporter cells (NanoLuc luminescence); conditions: DMEM, 37 °C, 12 h
Experimental: as §1, with “Japan).” for “Japan). The reporter cells were selected to establish a stable cell line harboring GLP1R and secretory NanoLuc genes (hGLP1R/NLuc-293)[13].”
To perform a functional assay using the adherent hGLP1R/NLuc-293 cell line, hGLP1R/NLuc-293 cells were seeded at 5 × 10^3 cells/100 µL in a 96-well plate (Thermo Fisher Scientific) and cultured at 37 °C for 24 h. […] Afterwards, 50 µL luciferase substrate (Nano-Glo™ Luciferase Assay System, Promega, Fitchburg, WI, USA) was added, and luminescence intensity was measured using a Fluoroskan Ascent™ Microplate Fluorometer (Thermo Fisher Scientific).
To verify the activities of the identified Ex4 variants, we prepared variant peptides using E. coli as follows. […] The calibration curve used for quantification was obtained with standard FLAG peptides (Wako Pure Chemical Industries).

[6] = 30 nM authentic Ex4 vs 0 nM, mean ± SD (n = 3), two-tailed Student's t-test, Fig. 2a
[7] = culture supernatants of Ex4-secretory yeast (yeast-Ex4) vs WT yeast, n = 3, Fig. 2b

Which results are given for exendin-4 [Ex4]?
reporter signal (LacZ fluorescence) (human GLP1R (hGLP1R) [1]; [6]): significant reporter signals in both lines; reporter signal (LacZ fluorescence) (human GLP1R (hGLP1R) [1]; [7]): significant reporter signals in both lines; overlap of box plots of droplet fluorescence, "Ex4" vs "no ligand" (human GLP1R (hGLP1R) [2]; 30 nM authentic Ex4, 30 °C): partially overlapped; fluorescence intensity of droplets (human GLP1R (hGLP1R) [2]; 30 nM authentic Ex4 vs no ligand, two-tailed Student's t-test): significant increases in fluorescence intensity; fluorescence intensity of droplets (human GLP1R (hGLP1R) [2]; yeast cells secreting Ex4 (9.1 × 10^6 cells/mL) vs Yeast-WT): significant increases in fluorescence intensity; fluorescence (LacZ reporter) (human GLP1R (hGLP1R) [3]): significant increase in fluorescence; fluorescence (LacZ reporter) (human GLP1R (hGLP1R) [4]): significant increase in fluorescence; agonist strength at GLP1R (GLP1R): very strong agonist; reporter signal (NanoLuc luminescence) (human GLP1R (hGLP1R) [5]; [6]): significant reporter signals in both lines; reporter signal (NanoLuc luminescence) (human GLP1R (hGLP1R) [5]; [7]): significant reporter signals in both lines
